In ChEMBL document CHEMBL1201861, “Genomics of Drug Sensitity in Cancer screening data, Wellcome Trust Sanger Institute”:

How the values were obtained:
Daudi = experiment: cells; type: functional, cell-based; settings: Homo sapiens;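 note: growth inhibition of Daudi cells, read out by a viability assay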
Description: SANGER: Inhibition of human Daudi cell growth in a cell viability assay.

EB2 = experiment: cells; type: functional, cell-based; settings: Homo sapiens;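 note: growth inhibition of EB2 cells, read out with a cell viability assay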
Description: SANGER: Inhibition of human EB2 cell growth in a cell viability assay.

ECC12 = experiment: cells; type: functional, cell-based; settings: Homo sapiens
Description: SANGER: Inhibition of human ECC12 cell growth in a cell viability assay.

ECC4 = experiment: cells; type: functional, cell-based; settings: Homo sapiens;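 note: growth inhibition of ECC4 cells, read out with a cell viability assay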
Description: SANGER: Inhibition of human ECC4 cell growth in a cell viability assay.

GDM-1 = experiment: cells; type: functional, cell-based; settings: Homo sapiens;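 note: cell viability readout used to measure growth inhibition of human GDM-1 cells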
Description: SANGER: Inhibition of human GDM-1 cell growth in a cell viability assay.

HCC1599 = experiment: cells; type: functional, cell-based; settings: Homo sapiens;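 note: growth inhibition of HCC1599 cells, read out in a cell viability assay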
Description: SANGER: Inhibition of human HCC1599 cell growth in a cell viability assay.

HSC-4 = experiment: cells; type: functional, cell-based, Homo sapiens; settings: Homo sapiens, HSC-4;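 note: growth inhibition of human HSC-4 cells, read out with a cell viability assay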
Description: SANGER: Inhibition of human HSC-4 cell growth in a cell viability assay.

IMR-5 = experiment: cells; type: functional, cell-based; settings: Homo sapiens;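 note: growth inhibition of human IMR-5 cells, read out with a cell viability assay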
Description: SANGER: Inhibition of human IMR-5 cell growth in a cell viability assay.

JIYOYE = experiment: cells; type: functional, cell-based; settings: Homo sapiens
Description: SANGER: Inhibition of human JiyoyeP-2003 cell growth in a cell viability assay.

K052 = experiment: cells; type: functional, cell-based; settings: Homo sapiens;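 note: Read-out from a cell viability assay, IC50 reflecting suppression of K052 cell growth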
Description: SANGER: Inhibition of human K052 cell growth in a cell viability assay.

KARPAS-422 = experiment: cells; type: functional, cell-based; settings: Homo sapiens
Description: SANGER: Inhibition of human KARPAS-422 cell growth in a cell viability assay.

L-540 = experiment: cells; type: functional, cell-based; settings: Homo sapiens;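 note: growth inhibition of the human L-540 cell line, read out with a viability assay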
Description: SANGER: Inhibition of human L-540 cell growth in a cell viability assay.

LC-1F = experiment: cells; type: functional, cell-based; settings: Homo sapiens;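 note: growth inhibition of human LC-1F cells, read out with a cell viability assay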
Description: SANGER: Inhibition of human LC-1F cell growth in a cell viability assay.

LC4-1 = experiment: cells; type: functional, cell-based; settings: Homo sapiens;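 note: growth inhibition of LC4-1 cells, read out with a cell viability assay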
Description: SANGER: Inhibition of human LC4-1 cell growth in a cell viability assay.

LP-1 = experiment: cells; type: functional, cell-based; settings: Homo sapiens;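 note: growth inhibition of human LP-1 cells, with the read-out taken from a cell viability assay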
Description: SANGER: Inhibition of human LP-1 cell growth in a cell viability assay.

MEL-JUSO = experiment: cells; type: functional, cell-based, Homo sapiens; settings: Homo sapiens, MEL-JUSO;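 note: growth inhibition of human MEL-JUSO cells, read out with a cell viability assay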
Description: SANGER: Inhibition of human MEL-JUSO cell growth in a cell viability assay.

MHH-CALL-2 = experiment: cells; type: functional, cell-based; settings: Homo sapiens;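 note: growth inhibition of the cell line, read out in a cell viability assay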
Description: SANGER: Inhibition of human MHH-CALL-2 cell growth in a cell viability assay.

NB1 = experiment: cells; type: functional, cell-based; settings: Homo sapiens;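 note: reduction of NB1 cell proliferation, read out with a viability assay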
Description: SANGER: Inhibition of human NB1 cell growth in a cell viability assay.

NCI-H1436 = experiment: cells; type: functional, cell-based; settings: Homo sapiens;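 note: growth suppression of human NCI-H1436 cells, determined with a cell viability readout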
Description: SANGER: Inhibition of human NCI-H1436 cell growth in a cell viability assay.

NCI-H1522 = experiment: cells; type: functional, cell-based; settings: Homo sapiens;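 note: growth inhibition of NCI-H1522 cells, read out with a cell viability assay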
Description: SANGER: Inhibition of human NCI-H1522 cell growth in a cell viability assay.

NCI-H1703 = experiment: cells; type: functional, cell-based, Homo sapiens; settings: Homo sapiens, NCI-H1703;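 note: growth inhibition of NCI-H1703 cells, read out via a cell viability assay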
Description: SANGER: Inhibition of human NCI-H1703 cell growth in a cell viability assay.

NCI-H1882 = experiment: cells; type: functional, cell-based; settings: Homo sapiens
Description: SANGER: Inhibition of human NCI-H1882 cell growth in a cell viability assay.

NCI-H2009 = experiment: cells; type: functional, cell-based, Homo sapiens; settings: Homo sapiens, NCI-H2009;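 note: cell viability assay measuring inhibition of NCI-H2009 cell growth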
Description: SANGER: Inhibition of human NCI-H2009 cell growth in a cell viability assay.

NCI-H2196 = experiment: cells; type: functional, cell-based; settings: Homo sapiens;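 note: cell viability assay used as the readout of growth inhibition in NCI-H2196 cells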
Description: SANGER: Inhibition of human NCI-H2196 cell growth in a cell viability assay.

NCI-H2227 = experiment: cells; type: functional, cell-based; settings: Homo sapiens;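 note: growth inhibition of the human cell line, read out with a cell viability assay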
Description: SANGER: Inhibition of human NCI-H2227 cell growth in a cell viability assay.

NCI-H345 = experiment: cells; type: functional, cell-based; settings: Homo sapiens;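 note: growth inhibition of NCI-H345 cells measured with a cell viability assay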
Description: SANGER: Inhibition of human NCI-H345 cell growth in a cell viability assay.

NCI-H889 = experiment: cells; type: functional, cell-based; settings: Homo sapiens;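 note: cell growth inhibition of the cell line, read out with a viability assay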
Description: SANGER: Inhibition of human NCI-H889 cell growth in a cell viability assay.

OPM-2 = experiment: cells; type: functional, cell-based; settings: Homo sapiens;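 note: growth of OPM-2 cells measured with a viability assay, IC50 for suppression of proliferation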
Description: SANGER: Inhibition of human OPM-2 cell growth in a cell viability assay.

PF-382 = experiment: cells; type: functional, cell-based; settings: Homo sapiens
Description: SANGER: Inhibition of human PF-382 cell growth in a cell viability assay.

REH = experiment: cells; type: functional, cell-based; settings: Homo sapiens;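 note: growth inhibition of REH cells determined with a cell viability read-out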
Description: SANGER: Inhibition of human REH cell growth in a cell viability assay.

RL = experiment: cells; type: functional, cell-based; settings: Homo sapiens
Description: SANGER: Inhibition of human RL cell growth in a cell viability assay.

RPMI-6666 = experiment: cells; type: functional, cell-based; settings: Homo sapiens
Description: SANGER: Inhibition of human RPMI-6666 cell growth in a cell viability assay.

RPMI 8402 = experiment: SANGER: Inhibition of human RPMI-8402 cell growth in a cell viability assay.; type: functional, cell-based
Raji = experiment: cells; type: functional, cell-based; settings: Homo sapiens;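 note: cell viability assay measuring inhibition of Raji cell growth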
Description: SANGER: Inhibition of human Raji cell growth in a cell viability assay.

SNU-423 = experiment: cells; type: functional, cell-based, Homo sapiens; settings: Homo sapiens, SNU-423
Description: SANGER: Inhibition of human SNU-423 cell growth in a cell viability assay.

SNU-C1 = experiment: cells; type: functional, cell-based; settings: Homo sapiens;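 note: growth inhibition of SNU-C1 human cells, read out by a cell viability assay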
Description: SANGER: Inhibition of human SNU-C1 cell growth in a cell viability assay.

SUP-T1 = experiment: cells; type: functional, cell-based; settings: Homo sapiens;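 note: growth inhibition of human SUP-T1 cells, read out as cell viability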
Description: SANGER: Inhibition of human SUP-T1 cell growth in a cell viability assay.

TALL-1 = experiment: cells; type: functional, cell-based; settings: Homo sapiens;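 note: growth inhibition of cultured human TALL-1 cells, read out by a cell viability assay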
Description: SANGER: Inhibition of human TALL-1 cell growth in a cell viability assay.

23132-87 = experiment: cells; type: functional, cell-based, Homo sapiens; settings: Homo sapiens
Description: SANGER: Inhibition of human 23132-87 cell growth in a cell viability assay.

BC1 cell line = experiment: SANGER: Inhibition of human BC-1 cell growth in a cell viability assay.; type: functional, cell-based
BL-41 = experiment: cells; type: functional, cell-based; settings: Homo sapiens;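 note: growth inhibition of human BL-41 cells, read out with a cell viability assay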
Description: SANGER: Inhibition of human BL-41 cell growth in a cell viability assay.

BL-70 = experiment: SANGER: Inhibition of human BL-70 cell growth in a cell viability assay.; type: functional, cell-based
BOKU = experiment: cells; type: functional, cell-based; settings: Homo sapiens;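 note: growth inhibition of the human BOKU cell line, read out by a cell viability assay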
Description: SANGER: Inhibition of human BOKU cell growth in a cell viability assay.

CA46 = experiment: cells; type: functional, cell-based; settings: Homo sapiens;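 note: growth inhibition of human CA46 cells, read out by a cell viability assay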
Description: SANGER: Inhibition of human CA46 cell growth in a cell viability assay.

THP-1 = experiment: cells; type: functional, cell-based; settings: Homo sapiens;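 note: growth inhibition of THP-1 cells, read out via a cell viability assay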
Description: SANGER: Inhibition of human THP-1 cell growth in a cell viability assay.

UACC-812 = experiment: cells; type: functional, cell-based; settings: Homo sapiens
Description: SANGER: Inhibition of human UACC-812 cell growth in a cell viability assay.

WSU-NHL = experiment: cells; type: functional, cell-based; settings: Homo sapiens;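 note: growth inhibition of human WSU-NHL cells, read out with a cell viability assay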
Description: SANGER: Inhibition of human WSU-NHL cell growth in a cell viability assay.

YT = experiment: cells; type: functional, cell-based; settings: Homo sapiens
Description: SANGER: Inhibition of human YT cell growth in a cell viability assay.

CMK = experiment: cells; type: functional, cell-based; settings: Homo sapiens;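 note: growth inhibition of CMK cells, read out as cell viability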
Description: SANGER: Inhibition of human CMK cell growth in a cell viability assay.

For `COC(=O)CNC(=O)C(=O)OC`, the IC50 (Daudi) was 68.3 µM, the IC50 (EB2) was 297 µM and the IC50 (ECC12) was 1800 µM. It also gave an IC50 (ECC4) of 3580 µM, an IC50 (GDM-1) of 121 µM and an IC50 (HCC1599) of 129 µM. The IC50 (HSC-4) was 414 µM, the IC50 (IMR-5) was 254 µM and the IC50 (JIYOYE) was 291 µM. It also gave an IC50 (K052) of 171 µM, an IC50 (KARPAS-422) of 162 µM and an IC50 (L-540) of 239 µM. For the same compound, the IC50 (LC-1F) was greater than 4000 µM, the IC50 (LC4-1) was 99.8 µM and the IC50 (LP-1) was 190 µM. It also gave an IC50 (MEL-JUSO) of 275 µM, an IC50 (MHH-CALL-2) of 173 µM and an IC50 (NB1) of 210 µM. It also gave an IC50 (NCI-H1436) greater than 4000 µM, an IC50 (NCI-H1522) greater than 4000 µM and an IC50 (NCI-H1703) of 1660 µM. The IC50 (NCI-H1882) was 134 µM, the IC50 (NCI-H2009) was 296 µM and the IC50 (NCI-H2196) was 2960 µM. It also gave an IC50 (NCI-H2227) of 3060 µM, an IC50 (NCI-H345) of 648 µM and an IC50 (NCI-H889) greater than 4000 µM. For the same compound, the IC50 (OPM-2) was 28.8 µM, the IC50 (PF-382) was 85.4 µM and the IC50 (REH) was 308 µM. It also gave an IC50 (RL) of 601 µM, an IC50 (RPMI-6666) of 228 µM and an IC50 (RPMI 8402) of 313 µM. It also gave an IC50 (Raji) of 609 µM, an IC50 (SNU-423) of 175 µM and an IC50 (SNU-C1) of 2100 µM. The IC50 (SUP-T1) was 143 µM, the IC50 (TALL-1) was greater than 4000 µM and the IC50 (23132-87) was greater than 4000 µM. It also gave an IC50 (BC1 cell line) of 86.1 µM, an IC50 (BL-41) of 54.9 µM and an IC50 (BL-70) of 15.9 µM. It also gave an IC50 (BOKU) of 177 µM, an IC50 (CA46) of 96 µM and an IC50 (THP-1) greater than 4000 µM. The IC50 (UACC-812) was 3010 µM, the IC50 (WSU-NHL) was greater than 4000 µM and the IC50 (YT) was 23.4 µM. The IC50 (CMK) was 126 µM.
Compound `COc1cc([C@@H]2c3cc4c(cc3[C@@H](O[C@@H]3O[C@@H]5CO[C@@H](C)O[C@H]5[C@H](O)[C@H]3O)[C@H]3COC(=O)[C@H]23)OCO4)cc(OC)c1O` [ETOPOSIDE] has an IC50 (Daudi) of 5.36 µM, an IC50 (EB2) of 0.391 µM and an IC50 (ECC12) of 0.954 µM. For the same compound, the IC50 (ECC4) was greater than 16 µM, the IC50 (GDM-1) was 3.4 µM and the IC50 (HCC1599) was 0.616 µM. It also gave an IC50 (HSC-4) of 1.26 µM, an IC50 (IMR-5) of 0.469 µM and an IC50 (JIYOYE) of 2.54 µM. The IC50 (K052) was greater than 16 µM, the IC50 (KARPAS-422) was 4.33 µM and the IC50 (L-540) was 1.06 µM. It also gave an IC50 (LC-1F) greater than 16 µM, an IC50 (LC4-1) of 3.23 µM and an IC50 (LP-1) greater than 16 µM. For the same compound, the IC50 (MEL-JUSO) was 0.657 µM, the IC50 (MHH-CALL-2) was greater than 16 µM and the IC50 (NB1) was 10.2 µM. It also gave an IC50 (NCI-H1436) greater than 16 µM, an IC50 (NCI-H1522) greater than 16 µM and an IC50 (NCI-H1703) of 1.3 µM. The IC50 (NCI-H1882) was 2.68 µM, the IC50 (NCI-H2009) was 0.697 µM and the IC50 (NCI-H2196) was 7.49 µM. It also gave an IC50 (NCI-H2227) greater than 16 µM, an IC50 (NCI-H345) greater than 16 µM and an IC50 (NCI-H889) greater than 16 µM. It also gave an IC50 (OPM-2) greater than 16 µM, an IC50 (PF-382) of 0.724 µM and an IC50 (REH) of 0.224 µM. The IC50 (RL) was greater than 16 µM, the IC50 (RPMI-6666) was 1.03 µM and the IC50 (RPMI 8402) was 0.271 µM. The IC50 (Raji) was 8.32 µM, the IC50 (SNU-423) was 1.75 µM and the IC50 (SNU-C1) was greater than 16 µM. It also gave an IC50 (SUP-T1) of 0.706 µM, an IC50 (TALL-1) greater than 16 µM and an IC50 (23132-87) of 0.501 µM. For the same compound, the IC50 (BC1 cell line) was 0.545 µM, the IC50 (BL-41) was 2.08 µM and the IC50 (BL-70) was 7.07 µM. The IC50 (BOKU) was 1.63 µM, the IC50 (CA46) was greater than 16 µM and the IC50 (THP-1) was greater than 16 µM. The IC50 (UACC-812) was greater than 16 µM, the IC50 (WSU-NHL) was 4.36 µM and the IC50 (YT) was greater than 16 µM. The IC50 (CMK) was 2.68 µM.
